Target: T1, Wee1 (Homo sapiens, UniProt P30291)
T1 construct: purchased Eurofins
Assay: In vitro enzymatic inhibitory activity, Wee1 kinase (Eurofins, [γ-33P]-ATP filter assay)
Assay type: biochemical
Settings: 10 μM [γ-33P]-ATP, 40 min at room temperature
Description: The experimental tests were conducted at Eurofins, and the results were provided by the company.
After adding the mixed solution of Mg^2+ and ATP, the reaction started and the reaction solution was incubated at room temperature for 40 min. 3% phosphate buffer was added to stop the reaction. 10 μL of the reaction solution was filtered on a continuous filter P30, washed three times with 75 mM phosphate buffer, once with methanol, and 5 minutes each time. After drying, the value was read by scintillation counting method.

T1 sequence (P30291 whole entry): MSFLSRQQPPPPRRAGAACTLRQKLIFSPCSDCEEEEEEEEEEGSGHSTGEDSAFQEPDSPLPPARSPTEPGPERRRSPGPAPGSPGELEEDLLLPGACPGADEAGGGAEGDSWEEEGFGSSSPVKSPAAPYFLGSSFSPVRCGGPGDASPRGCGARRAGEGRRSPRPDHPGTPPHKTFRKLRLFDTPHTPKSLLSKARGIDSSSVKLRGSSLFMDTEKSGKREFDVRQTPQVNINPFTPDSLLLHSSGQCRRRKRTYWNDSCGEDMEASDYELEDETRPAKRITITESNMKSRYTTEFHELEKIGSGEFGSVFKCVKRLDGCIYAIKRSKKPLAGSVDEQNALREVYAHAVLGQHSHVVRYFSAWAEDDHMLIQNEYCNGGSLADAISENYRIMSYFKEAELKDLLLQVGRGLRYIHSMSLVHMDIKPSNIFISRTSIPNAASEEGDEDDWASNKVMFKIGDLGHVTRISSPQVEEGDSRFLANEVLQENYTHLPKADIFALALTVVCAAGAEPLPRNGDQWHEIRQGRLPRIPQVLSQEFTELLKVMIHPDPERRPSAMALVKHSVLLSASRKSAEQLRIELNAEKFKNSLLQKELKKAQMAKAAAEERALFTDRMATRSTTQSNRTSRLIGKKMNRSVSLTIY

Row | SMILES | IC50
1 | CC1(O)CC/C=C\Cn2c(=O)c3cnc(Nc4ccc(N5CCC(F)(F)CC5)cc4)nc3n2-c2cccc1n2 (centres unmarked) [Compound 3] | 42 nM
2 | CC1(O)CC/C=C\Cn2c(=O)c3cnc(Nc4ccc(N5CCNCC5)cc4)nc3n2-c2cccc1n2 (centres unmarked) [Compound 6] | 46 nM
3 | CN1CCC2(CC1)CCN(c1ccc(Nc3ncc4c(=O)n5n(c4n3)-c3cccc(n3)C(C)(O)CC/C=C\C5)cc1)CC2 (centres unmarked) [Compound 7] | 54 nM
4 | CN(C)C1CCN(c2ccc(Nc3ncc4c(=O)n5n(c4n3)-c3cccc(n3)C(C)(O)CC/C=C\C5)cc2)CC1 (centres unmarked) [Compound 9] | 41 nM
5 | CN1CCCN(c2ccc(Nc3ncc4c(=O)n5n(c4n3)-c3cccc(n3)C(C)(O)CC/C=C\C5)cc2)CC1 (centres unmarked) [Compound 10] | 49 nM
6 | CC1(O)CC/C=C\Cn2c(=O)c3cnc(Nc4ccc(N5CCCNCC5)cc4)nc3n2-c2cccc1n2 (centres unmarked) [Compound 11] | 102 nM
7 | C[C@@]1(O)CC/C=C\Cn2c(=O)c3cnc(Nc4ccccc4)nc3n2-c2cccc1n2 [Compound 12] | 59 nM
8 | C[C@]1(O)CC/C=C\Cn2c(=O)c3cnc(Nc4ccccc4)nc3n2-c2cccc1n2 [Compound 13] | 265 nM
9 | COc1cccc(Nc2ncc3c(=O)n4n(c3n2)-c2cccc(n2)[C@](C)(O)CC/C=C\C4)c1 [Compound 16] | 60 nM
10 | COc1cccc(Nc2ncc3c(=O)n4n(c3n2)-c2cccc(n2)[C@@](C)(O)CC/C=C\C4)c1 [Compound 17] | 366 nM
11 | CN(C)CCOc1ccc(Nc2ncc3c(=O)n4n(c3n2)-c2cccc(n2)[C@](C)(O)CC/C=C\C4)cc1 [Compound 18] | 29 nM
12 | CN(C)CCOc1ccc(Nc2ncc3c(=O)n4n(c3n2)-c2cccc(n2)[C@@](C)(O)CC/C=C\C4)cc1 [Compound 19] | 72 nM
13 | CN1CCC(c2ccc(Nc3ncc4c(=O)n5n(c4n3)-c3cccc(n3)[C@](C)(O)CC/C=C\C5)cc2)CC1 [Compound 20] | 173 nM
14 | CN1CCC(c2ccc(Nc3ncc4c(=O)n5n(c4n3)-c3cccc(n3)[C@@](C)(O)CC/C=C\C5)cc2)CC1 [Compound 21] | 280 nM
15 | CN1CCN(c2ccc(Nc3ncc4c(=O)n5n(c4n3)-c3cccc(n3)[C@](C)(O)CC/C=C\C5)cc2CO)CC1 [Compound 22] | 16 nM
16 | COCc1cc(Nc2ncc3c(=O)n4n(c3n2)-c2cccc(n2)[C@](C)(O)CC/C=C\C4)ccc1N1CCN(C)CC1 [Compound 23] | 29 nM
17 | CN1CC2CN(c3ccc(Nc4ncc5c(=O)n6n(c5n4)-c4cccc(n4)[C@](C)(O)CC/C=C\C6)cc3)CC2C1 (some centres unmarked) [Compound 24] | 57 nM
18 | CN1CC2CN(c3ccc(Nc4ncc5c(=O)n6n(c5n4)-c4cccc(n4)[C@@](C)(O)CC/C=C\C6)cc3)CC2C1 (some centres unmarked) [Compound 25] | 78 nM

Row | SMILES | IC50
19 | CN1CCc2ccc(Nc3ncc4c(=O)n5n(c4n3)-c3cccc(n3)[C@](C)(O)CC/C=C\C5)cc2C1 [Compound 26] | 30 nM
20 | CN1CCc2ccc(Nc3ncc4c(=O)n5n(c4n3)-c3cccc(n3)[C@@](C)(O)CC/C=C\C5)cc2C1 [Compound 27] | 37 nM
21 | C[C@@]1(O)CC/C=C\Cn2c(=O)c3cnc(Nc4cccc(F)c4)nc3n2-c2cccc1n2 [Compound 28] | 79 nM
22 | C[C@]1(O)CC/C=C\Cn2c(=O)c3cnc(Nc4cccc(F)c4)nc3n2-c2cccc1n2 [Compound 29] | 444 nM
23 | C[C@@]1(O)CC/C=C\Cn2c(=O)c3cnc(Nc4ccc(F)cc4)nc3n2-c2cccc1n2 [Compound 30] | 67 nM
24 | C[C@]1(O)CC/C=C\Cn2c(=O)c3cnc(Nc4ccc(F)cc4)nc3n2-c2cccc1n2 [Compound 31] | 323 nM
25 | C[C@@]1(O)CC/C=C\Cn2c(=O)c3cnc(Nc4ccc(N5CCOCC5)cc4)nc3n2-c2cccc1n2 [Compound 32] | 37 nM
26 | C[C@]1(O)CC/C=C\Cn2c(=O)c3cnc(Nc4ccc(N5CCOCC5)cc4)nc3n2-c2cccc1n2 [Compound 33] | 151 nM
27 | CN1CCN(c2cccc(Nc3ncc4c(=O)n5n(c4n3)-c3cccc(n3)[C@](C)(O)CC/C=C\C5)c2)CC1 [Compound 34] | 116 nM
28 | CN1CCN(c2cccc(Nc3ncc4c(=O)n5n(c4n3)-c3cccc(n3)[C@@](C)(O)CC/C=C\C5)c2)CC1 [Compound 35] | 276 nM
29 | CN(C)CCOc1cccc(Nc2ncc3c(=O)n4n(c3n2)-c2cccc(n2)[C@](C)(O)CC/C=C\C4)c1 [Compound 36] | 35 nM
30 | CN1CCCN(c2ccc(Nc3ncc4c(=O)n5n(c4n3)-c3cccc(n3)[C@](C)(O)CC/C=C\C5)cc2)CC1 [Compound 37] | 31 nM
31 | CN(C)C1CCN(c2ccc(Nc3ncc4c(=O)n5n(c4n3)-c3cccc(n3)[C@](C)(O)CC/C=C\C5)cc2)CC1 [Compound 38] | 48 nM
32 | C[C@@]1(O)CC/C=C\Cn2c(=O)c3cnc(Nc4ccc(Cl)cc4)nc3n2-c2cccc1n2 [Compound 39] | 54 nM
33 | C[C@@]1(O)CC/C=C\Cn2c(=O)c3cnc(Nc4ccc(OC5CC5)cc4)nc3n2-c2cccc1n2 [Compound 40] | 35 nM
34 | C[C@@]1(O)CC/C=C\Cn2c(=O)c3cnc(Nc4ccc(N5CCC(F)(F)CC5)cc4)nc3n2-c2cccc1n2 [Compound 41] | 16 nM
35 | CN(C)CCOc1cccc(Nc2ncc3c(=O)n4n(c3n2)-c2cccc(n2)[C@@](C)(O)CC/C=C\C4)c1 [Compound 42] | 221 nM
